What was measured:
[1] = tested on: Staphylococcus Aureus ATCC 25923; assay: Colourimetric enzymatic assays in loaded capillaries; assay type: cell-based; settings: overnight at 37° C.; substrate per capillary from Table 4, 500 mg/mL; yellow = positive reaction
Experimental: (§1) An experiment was conducted to test a combination of sugar fermentation and enzymatic assays for the specific identification of bacteria. Individual 200 micron internal diameter capillaries coated with cross-linked HMW PVA were individually loaded with different reagents to perform a combination of colourimetric sugar fermentation and enzymatic assays as shown in Table 4. [table] […] Staphylococcus Epidermidis ATCC 12228 or Staphylococcus Saprophyticus ATCC 15305 resuspended in Microbatch Staph 12 S suspending media. The strips were incubated overnight at 37° C., and positive/negative identification of assays on individual capillaries was performed by imaging the strips with CCD camera. Enzyme detection: enzymatic substrates are normally colourless. If bacteria have the targeted enzymes, the substrates will be hydrolysed, releasing compounds that will produce a yellow colour indicating a positive reaction.

[2] = tested on: Staphylococcus Saprophyticus ATCC 15305; assay: as above; assay type: cell-based; settings: overnight at 37° C.; substrate per capillary from Table 4, 500 mg/mL; yellow = positive reaction
Experimental: as §1

[3] = tested on: Staphylococcus Epidermidis ATCC 12228; assay: as above; assay type: cell-based; settings: overnight at 37° C.; substrate per capillary from Table 4, 500 mg/mL; yellow = positive reaction
Experimental: as §1

[4] = tested on: Staphylococcus Aureus ATCC 25923; assay: Colourimetric fermentation assays in loaded capillaries; assay type: cell-based; settings: overnight at 37° C.; reagent per capillary from Table 4; orange to yellow = fermentation, orange to purple = arginine/urea degradation
Experimental: (§2) An experiment was conducted to test a combination of sugar fermentation and enzymatic assays for the specific identification of bacteria. Individual 200 micron internal diameter capillaries coated with cross-linked HMW PVA were individually loaded with different reagents to perform a combination of colourimetric sugar fermentation and enzymatic assays as shown in Table 4. [table] […] Staphylococcus Epidermidis ATCC 12228 or Staphylococcus Saprophyticus ATCC 15305 resuspended in Microbatch Staph 12 S suspending media. The strips were incubated overnight at 37° C., and positive/negative identification of assays on individual capillaries was performed by imaging the strips with CCD camera. Sugar Fermentation: if a sugar is fermented, bacteria will produce acid end products and the pH of the medium will drop. The media contains a pH indicator to indicate acid production. A positive test for sugar fermentation consists of a colour change from orange to yellow, indicating a pH change to acidic. Arginine and Urea degradation (detection of Arginine dihydrolase/Urease): when arginine or urea are present, the pH of the medium rises. Accordingly, a positive test for detection of arginine dihydrolase or urease consists of a colour change from orange to purple indicating a pH change to alkaline.

[5] = tested on: Staphylococcus Epidermidis ATCC 12228; assay: as above; assay type: cell-based; settings: overnight at 37° C.; reagent per capillary from Table 4; orange to yellow = fermentation, orange to purple = arginine/urea degradation
Experimental: as §2

[6] = tested on: Staphylococcus Saprophyticus ATCC 15305; assay: as above; assay type: cell-based; settings: overnight at 37° C.; reagent per capillary from Table 4; orange to yellow = fermentation, orange to purple = arginine/urea degradation
Experimental: as §2

[7] = ONPG released into water from loaded cross-linked PVA coated strips, enzymatic endpoint analysis at 420 nm; assay type: physicochemical; settings: 1 hour, 60 mm strips
Experimental: Reagent loading and release from the hydrophilic layer was quantified using a fluorescent dye and colorimetric enzyme substrates. For this purpose, an FEP microcapillary film was coated with cross-linked PVA and loaded with two assay reagents, the enzymatic substrate ortho-nitrophenyl-β-galactoside (ONPG) which produces a yellow colour in the presence of beta-galactosidase, and the fluorescent dye fluorescein. Loading was performed by incubation with a water or dimethylformamide (DMF)-based reagent solution for between 5 minutes and 2 h, and subsequent removal of the loading solution using a syringe, followed by air drying of the capillaries by repeated aspiration of air through the film using a syringe. Following loading of the capillaries, the amount of reagent loaded was quantified using three different methods.
The water taken up was then removed using a syringe and ONPG concentration measured by enzymatic endpoint analysis in a microwell plate well through the addition of an excess of beta-galactosidase enzyme and monitoring absorbance at 420 nm using a microwell plate reader. Released concentrations were determined by comparison of absorbance with a calibration curve of known concentrations of ONPG.

[8] = ONPG released into water from strips with different hydrophilic coatings; assay type: physicochemical; settings: loaded 150 g/L, 5 minute
Experimental: The polymer solutions were then removed from the microcapillary film and the film dried by repeatedly aspirating air through the film strip using a syringe. An FEP microcapillary film coated with cross-linked PVA was used as a control. 8 cm lengths of each polymer coated film were then loaded with ONPG reagent by dipping the film into a 150 g/L ONPG solution. After a 5 minute incubation, the ONPG solution was removed and capillaries were dried using a syringe. The test films were then dipped into water, and the amount of ONPG reagent released into the water measured by a colorimetric endpoint determination using beta-galactosidase enzyme. With the cross-linked PVA coated test strips, 7.8 mg/ml ONPG was released, with gelatine coated test strips 7.2 mg/ml ONPG was released, and with HPMC coated test strips 21.5 mg/ml ONPG was released.

[9] = tested on: E. coli (ATCC accession number: 25922); assay: ONPG assay in 96 well-plates (comparison); assay type: cell-based; settings: ONPG 1 mg/ml, overnight incubation
Experimental: (§3) A 10 bore FEP microcapillary film was internally coated with cross-linked PVA. Test microcapillary film was prepared by first loading the capillaries with ONPG by filling the capillaries with a 150 mg·mL^−1 ONPG substrate solution in DMF and incubating for 5 minutes. The substrate solution was then removed and the microcapillary film air dried using a syringe to pass air repeatedly through the capillaries. Seven test strips were cut from this ONPG loaded microcapillary film and dipped into one of 7 different aqueous samples. These comprised water (1); sterile Luria-Bertani lysogeny broth (LB) media (2); a 0.1 U/μl solution of β-galactosidase enzyme (3); an overnight culture of E. coli (ATCC accession number: 25922) suspended in LB (4); an overnight culture of Salmonella typhimurium (strain SL3261) suspended in LB (5); an overnight culture of E. coli suspended in a phosphate buffer saline PBS (6); an overnight culture of S. typhimurium suspended in PBS (7). Negative control test strips consisting of PVA coated cross-linked PVA but not loaded with ONPG were dipped into the same samples (referred hereafter as no substrate). As a comparison, similar assays were also performed in 96 well-plates with ONPG substrate solution (final concentration 1 mg·ml^−1) added to the different samples in a final volume of 100 μl.

[10] = tested on: Salmonella typhimurium (strain SL3261); assay: ONPG assay in 96 well-plates (comparison); assay type: cell-based; settings: ONPG 1 mg/ml, overnight incubation
Experimental: as §3

[11] = tested on: E. coli (ATCC accession number: 25922); assay: ONPG loaded test strips dipped into bacterial culture, yellow colour; assay type: cell-based; settings: IPTG-cultured (1 mM, 3 hours); 1 hour incubation at 37 degrees C
Experimental: as §3, with “μl. […]” for “μl.”

[12] = tested on: Salmonella typhimurium (strain SL3261); assay: as above; assay type: cell-based; settings: IPTG-cultured (1 mM, 3 hours); 1 hour incubation at 37 degrees C
Experimental: as §3, with “μl. […]” for “μl.”

[13] = ONPG loaded in strips, determined by dipping into beta-galactosidase solution, absorbance at 420 nm; assay type: physicochemical; settings: loaded 5 minutes with 150 mg/ml in DMF; cross-linked PVA; 1 hour with beta-galactosidase 0.2 U/μL
Experimental: Secondly, the concentration of loaded ONPG was determined inside the capillary film by dipping an FEP microcapillary film coated with cross-linked PVA, and loaded for 5 minutes with 150 mg/ml ONPG dissolved in DMF, into aqueous solutions of beta-galactosidase enzyme (at 0.2 U/μL). The solution was drawn up into test strips, and incubated for 1 hour to allow complete enzymatic conversion of the loaded ONPG. Subsequently, solution was removed from MCF test strips using a syringe and absorbance read using a microplate reader at 420 nm, and absorbance compared to a calibration curve of known concentrations of enzymatically converted ONPG.

Salmonella typhimurium = assay: Sugar fermentation in sugar loaded test strips with Phenol Red Broth; assay type: cell-based; settings: sugar loaded from 1 g/L solution; 1 h at 37 degrees C; yellow = reduction in pH
Experimental: (§4) The ability of bacteria to ferment specific sugars is also frequently used to distinguish similar species of bacteria. For example, E. coli are able to ferment lactose and glucose and produce acid when they are incubated in the presence of either of these sugars.
(§5) A 10 bore FEP microcapillary film was internally coated with cross-linked PVA. Test microcapillary film was prepared by first loading the capillaries with either glucose or lactose by filling the capillaries with a 1 g/L solution in water and incubating for 5 minutes. The sugar solutions were then removed and the microcapillary film air dried using a syringe to pass air repeatedly through the capillaries. Three test strips were cut from each of the glucose or lactose loaded microcapillary film and dipped into one of 3 different aqueous samples. The first sample was a control sample that contained no bacteria. The second sample contained a suspension of E. coli. The third sample contained a suspension of Salmonella typhimurium. All three aqueous samples also contained Phenol Red Broth (Casein peptone 1 g/L; NaCl 0.5 g/L; Phenol Red 1 g/L). The samples all started out with a pH of 7 and were bright red in colour. When dipped, each aqueous sample was rapidly drawn up into the test strips, and the microcapillaries were clearly bright red in colour due to the Phenol Red indicator dye in the sample. […]

E. coli = assay: as above; assay type: cell-based; settings: sugar loaded from 1 g/L solution; 1 h at 37 degrees C; yellow = reduction in pH
Experimental: as §4, §5

For `O=[N+]([O-])c1ccc(OP(=O)(O)O)cc1` [4-Nitrophenyl phosphate], the “colour, enzymatic assays” value [1] was “Y”.
With `O=[N+]([O-])c1ccc(O[C@@H]2O[C@H](CO)[C@H](O)[C@H](O)[C@H]2O)cc1` [4-Nitrophenyl β-D-galacto-pyranoside] the “colour, enzymatic assays” value [2] was “Y”.
With `O=C(O)[C@H]1O[C@@H](Oc2ccc([N+](=O)[O-])cc2)[C@H](O)[C@@H](O)[C@@H]1O` [4-Nitrophenyl β-D-glucuronide] the “colour, enzymatic assays” value [3] was “Y” and the “colour, enzymatic assays” value [1] was “Y”.
For `N=C(N)NCCC[C@H](N)C(=O)O` [Arginine], the “colour, fermentation assays” value [4] was “O/P”.
In the case of `OC[C@H]1O[C@H](O[C@H]2[C@H](O)[C@@H](O)[C@H](O)O[C@@H]2CO)[C@H](O)[C@@H](O)[C@@H]1O` [Maltose], the “colour, fermentation assays” value [5] is reported as “Y”, the “colour, fermentation assays” value [4] is reported as “Y” and the “colour, fermentation assays” value [6] is reported as “Y”.
In the case of `OC[C@@H](O)[C@@H](O)[C@H](O)[C@H](O)CO` [Mannitol], the “colour, fermentation assays” value [4] is reported as “Y” and the “colour, fermentation assays” value [6] is reported as “Y”.
With `CC(=O)N[C@H]1C(O)O[C@H](CO)[C@@H](O)[C@@H]1O` (stereo partly drawn) [N-Acetyl Glucosamine] the “colour, fermentation assays” value [4] was “Y”.
For `O=[N+]([O-])c1ccccc1O[C@@H]1O[C@H](CO)[C@H](O)[C@H](O)[C@H]1O` [ONPG, ortho-nitrophenyl-β-galactoside], the “Released Concentration” value ([7]; Loading concentration 0.5 mg/ml In Water) was 0.07 mg/mL, the “Released Concentration” value ([7]; Loading concentration 1.0 mg/ml In Water) was 0.01 mg/mL and the “Released Concentration” value ([7]; Loading concentration 5.0 mg/ml In Water) was 0.06 mg/mL. For the same compound, the “Released Concentration” value ([7]; Loading concentration 150.0 mg/ml In DMF) was 4.67 mg/mL, the ONPG released ([8]; HPMC coated test strips) was 21.5 mg/mL and the ONPG released ([8]; cross-linked PVA coated test strips) was 7.8 mg/mL. The ONPG released ([8]; gelatine coated test strips) was 7.2 mg/mL, the colour of wells [9] was “turned yellow” and the colour of wells [10] was “E. coli but not S. typhimurium suspensions turned yellow”. The “colour of ONPG-loaded test strips” value [11] was “a yellow colour was observed”, the “colour of ONPG-loaded test strips” value [12] was “no yellow colour was observed” and the “average concentration loaded within test strips” value [13] was 3.4 mg/mL.
For `OC[C@H]1O[C@@](CO)(O[C@H]2O[C@H](CO)[C@@H](O)[C@H](O)[C@H]2O)[C@@H](O)[C@@H]1O` [Sucrose], the “colour, fermentation assays” value [5] was “Y”, the “colour, fermentation assays” value [4] was “Y” and the “colour, fermentation assays” value [6] was “Y”.
In the case of `OC[C@H]1O[C@H](O[C@H]2O[C@H](CO)[C@@H](O)[C@H](O)[C@H]2O)[C@H](O)[C@@H](O)[C@@H]1O` [Trehalose], the “colour, fermentation assays” value [4] is reported as “Y” and the “colour, fermentation assays” value [6] is reported as “Y”.
In the case of `OC[C@H]1O[C@@H](O[C@H]2[C@H](O)[C@@H](O)C(O)O[C@@H]2CO)[C@H](O)[C@@H](O)[C@H]1O` (stereo partly drawn) [lactose], the “colour of sugar loaded test strips (Phenol Red)” value (Salmonella typhimurium) is reported as “remained bright red” and the “colour of sugar loaded test strips (Phenol Red)” value (E. coli) is reported as “turned yellow”.

— patent US20180021773A1, “ASSAY DEVICES, METHODS FOR CARRYING OUT ASSAYS, ASSAY KITS AND METHOD FOR MANUFACTURING ASSAY DEVICES” (Loughborough University, priority 2014, published 2018)
